US20080207573A1, “COMPOUNDS FOR TREATING VIRAL INFECTIONS” (priority 2006, published 2008)
Where two headings read alike, the source gives them in different places.

Experiments:
HIV-1IIIB = test: PBMC Drug Susceptibility Assay (HIV-1 p24 in supernatant); format: cell-based; conditions: Human immunodeficiency virus 1, PBMC, 168 h, HIV-1IIIB-infected human PBMCs, seven days
Source text: PBMC Drug Susceptibility Assay
Human peripheral blood mononuclear cells (PBMCS) were used to test compound antiviral activity as an indicator for clinical efficacy. PBMCs were isolated from two donors using a Ficoll-Hypaque density gradient, pooled and stimulated with PHA-L for three days. After stimulation, the cells were washed and maintained in culture medium containing IL-2. The stimulated cells were then mock-infected or batch-infected with the strain HIV-1IIIB at MOI 0.01 for one hour. Cells (unwashed) were then plated in the presence of increasing concentrations of compound and incubated for seven days. […] Compound toxicity in mock-infected cells was analyzed using the WST-1 assay.

[1] = Human Liver Microsome Assay (metabolic stability); format: in vitro ADME; conditions: human liver microsomes 0.5 mg/mL, test article 1 μM; for half-life at 1 μM: pH 7.4, read-out: Metabolic Stability in Human liver Microsomes T1/2
Description: Human Liver Microsome Assay
The microsomal fraction of liver homogenates contains endoplasmic reticulum derived cytochrome P450 enzymes that constitute the major phase I drug metabolizing enzymes. Briefly, to aid prediction of the in vivo rate of clearance of a dosed test article, an in vitro incubation containing human liver microsomes (0.5 mg/mL final protein concentration) and test article (1 μM incubation concentration) in the presence and absence of the necessary cofactor NADPH (1 mM incubation concentration) is conducted. The incubation is performed in a buffered aqueous system (100 mM potassium phosphate, pH 7.4). The concentration of the parent compound is determined using liquid chromatography coupled with tandem mass spectrometry and reported as percent remaining from a zero minute concentrations.

[2] = system: HIV-1 laboratory strain, NL4-3; test: MT-4 Cytoprotection Assay (protection from HIV-induced cytopathic effect, WST-1 readout); format: cell-based
Description: MT-4 Cytoprotection Assay
(§1) The HTLV-1 transformed T cell line, MT-4, is highly susceptible to HIV-1 infection. Anti-HIV-1 agents were evaluated in this target cell line by protection from the HIV-induced cytopathic effect. In this assay, viability of both HIV-1 and mock-infected cells was assessed in a […] assay that monitors the ability of metabolically-active cells to reduce the tetrazolium salt WST-1. Cytoprotection by antiviral compounds is indicated by the positive readout of increased WST-1 cleavage.
(§2) Briefly, exponentially growing MT-4 cells were mock-infected or batch-infected with the HIV-1 laboratory strain, NL4-3, at a multiplicity of infection of 0.0005. Following a two hour infection, the cells were washed to remove unbound virus and plated in the presence of increasing concentrations of compound. After four days incubation, cytoprotection in the infected cells and compound toxicity in mock-infected cells were analyzed using the WST-1 assay.

[3] = Compound toxicity in mock-infected MT-4 cells (WST-1 assay); format: cell-based; conditions: human, read-out: TC50 (concentration of compound that results in death of 50% of the host cells)
Description: as §1, §2

[4] = system: HIV-1 laboratory strain, NL4-3; test: MT-4 Cytoprotection Assay (protection from HIV-induced cytopathic effect, WST-1 readout); format: cell-based; conditions: Human immunodeficiency virus 1, NL43; Table 6, printed in the MT4 IC50 column but marked MT4 assay
[5] = Human immunodeficiency virus 1, NL43, MT4, 96 h, MT-4 cells, HIV-1 NL4-3, four days, read-out: EC50 (concentration of compound that reduces the virus induced cytopathic effect by 50% (MT-4))
[6] = Human immunodeficiency virus 1, NL43, list of representative compounds, read-out: EC50 of less than about 100 nm (representative compounds)
[7] = Human immunodeficiency virus 1, NL43, MT4, Table 7, MT-4 cells, HIV-1 NL4-3, read-out: MT4 EC50

SMILES: C=C(C)[C@@H]1CC[C@]2(C(=O)N[C@H](C)c3ccccn3)CC[C@]3(C)C(CCC4[C@@]5(C)CCC(OC(=O)CC(C)(C)C(=O)O)C(C)(C)C5CC[C@]43C)C12 (single isomer, unassigned) [Compound 105a]
- IC50 (HIV-1IIIB; Table 6): 2.6 nM
- Metabolic Stability in Human liver Microsomes % compound remaining at 40 minutes [1]: 44%
- half-life at 1 μM [1]: 36 min

SMILES: C=C(C)[C@@H]1CC[C@]2(C(=O)N[C@@H](C)c3ccccn3)CC[C@]3(C)C(CCC4[C@@]5(C)CCC(OC(=O)CC(C)(C)C(=O)O)C(C)(C)C5CC[C@]43C)C12 (single isomer, unassigned) [Compound 105b]
- IC50 (HIV-1IIIB; Table 6): 3.1 nM
- Metabolic Stability in Human liver Microsomes % compound remaining at 40 minutes [1]: 32%
- half-life at 1 μM [1]: 27 min

SMILES: C=C(C)[C@@H]1CC[C@]2(C(=O)NCc3ccncc3)CC[C@]3(C)[C@H](CC[C@@H]4[C@@]5(C)CC[C@H](O)C(C)(C)[C@@H]5CC[C@]43C)[C@@H]12 [Compound 46]
- EC50 [2, 5]: ~8600 nM
- CC50 at 4 days [3]: > 10000 nM

SMILES: C=C(C)[C@@H]1CC[C@]2(C(=O)NCCc3ccc(OC)cc3)CC[C@]3(C)[C@H](CC[C@@H]4[C@@]5(C)CC[C@H](OC(=O)CC(C)(C)C(=O)O)C(C)(C)[C@@H]5CC[C@]43C)[C@@H]12 [Compound 70]
- EC50 [2, 5]: ~2.9 nM
- EC50 [2, 6]: < 100 nM
- CC50 at 4 days [3]: > 10000 nM

SMILES: C=C(C)[C@@H]1CC[C@]2(C(=O)NCc3ccc(C(=O)O)cc3)CC[C@]3(C)[C@H](CC[C@@H]4[C@@]5(C)CC[C@H](OC(=O)CC(C)(C)C(=O)O)C(C)(C)[C@@H]5CC[C@]43C)[C@@H]12 [Compound 71]
- EC50 [2, 5]: ~126 nM
- CC50 at 4 days [3]: ~7700 nM

SMILES: C=C(C)[C@@H]1CC[C@]2(C(=O)NCc3ccccc3C(=O)O)CC[C@]3(C)[C@H](CC[C@@H]4[C@@]5(C)CC[C@H](OC(=O)CC(C)(C)C(=O)O)C(C)(C)[C@@H]5CC[C@]43C)[C@@H]12 [Compound 73]
- EC50 [2, 5]: ~8.1 nM
- EC50 [2, 6]: < 100 nM
- CC50 at 4 days [3]: ~6300 nM

SMILES: C=C(C)[C@@H]1CC[C@]2(C(=O)NCc3cccnc3)CC[C@]3(C)[C@H](CC[C@@H]4[C@@]5(C)CC[C@H](OC(=O)CC(C)(C)C(=O)O)C(C)(C)[C@@H]5CC[C@]43C)[C@@H]12 [Compound 76]
- EC50 [2, 5]: ~11 nM
- EC50 [2, 6]: < 100 nM
- CC50 at 4 days [3]: > 10000 nM

SMILES: C=C(C)[C@@H]1CC[C@]2(C(=O)NCc3ccccn3)CC[C@]3(C)[C@H](CC[C@@H]4[C@@]5(C)CC[C@H](OC(=O)CC(C)(C)C(=O)O)C(C)(C)[C@@H]5CC[C@]43C)[C@@H]12 [Compound 83]
- EC50 [2, 6]: < 100 nM
- Metabolic Stability in Human liver Microsomes % compound remaining at 40 minutes [1]: 11%
- half-life at 1 μM [1]: < 10 min
- IC50 [4]: 4.6 nM

SMILES: C=C(C)[C@@H]1CC[C@]2(C(=O)NC(Cc3ccc(OC)cc3)C(=O)O)CC[C@]3(C)[C@H](CC[C@@H]4[C@@]5(C)CC[C@H](OC(=O)CC(C)(C)C(=O)O)C(C)(C)[C@@H]5CC[C@]43C)[C@@H]12 (stereo partly drawn) [Compound 119]
- EC50 [2, 6]: < 100 nM

SMILES: C=C(C)[C@@H]1CC[C@]2(C(=O)NC(C(=O)O)c3ccc(OC)cc3)CC[C@]3(C)[C@H](CC[C@@H]4[C@@]5(C)CC[C@H](OC(=O)CC(C)(C)C(=O)O)C(C)(C)[C@@H]5CC[C@]43C)[C@@H]12 (stereo partly drawn) [Compound 120]
- EC50 [2, 6]: < 100 nM

SMILES: C=C(C)[C@@H]1CC[C@]2(C(=O)NC3(c4ccccn4)CC3)CC[C@]3(C)[C@H](CC[C@@H]4[C@@]5(C)CC[C@H](OC(=O)CC(C)(C)C(=O)O)C(C)(C)[C@@H]5CC[C@]43C)[C@@H]12 [Compound 121]
- EC50 [2, 6]: < 100 nM
- IC50 (HIV-1IIIB; Table 6): 18 nM
- Metabolic Stability in Human liver Microsomes % compound remaining at 40 minutes [1]: 42%
- half-life at 1 μM [1]: 30 min

SMILES: CC(C)[C@@H]1CC[C@]2(C(=O)NCc3ccccc3C(=O)O)CC[C@]3(C)[C@H](CC[C@@H]4[C@@]5(C)CC[C@H](OC(=O)CC(C)(C)C(=O)O)C(C)(C)[C@@H]5CC[C@]43C)[C@@H]12 [Compound 122]
- EC50 [2, 6]: < 100 nM

SMILES: CC(C)[C@@H]1CC[C@]2(C(=O)NCC3CCCO3)CC[C@]3(C)[C@H](CC[C@@H]4[C@@]5(C)CC[C@H](OC(=O)CC(C)(C)C(=O)O)C(C)(C)[C@@H]5CC[C@]43C)[C@@H]12 (stereo partly drawn) [Compound 123]
- EC50 [2, 6]: < 100 nM

SMILES: C=C(C)[C@@H]1CC[C@]2(C(=O)NCCC3CCCCC3)CC[C@]3(C)[C@H](CC[C@@H]4[C@@]5(C)CC[C@H](OC(=O)CC(C)(C)C(=O)O)C(C)(C)[C@@H]5CC[C@]43C)[C@@H]12 [Compound 124]
- EC50 [2, 6]: < 100 nM

SMILES: C=C(C)[C@@H]1CC[C@]2(C(=O)NC(C)(C)c3ccccn3)CC[C@]3(C)C(CCC4[C@@]5(C)CCC(OC(=O)CC(C)(C)C(=O)O)C(C)(C)C5CC[C@]43C)C12 (stereo partly drawn) [Compound 126]
- IC50 (HIV-1IIIB; Table 6): 47.5 nM
- Metabolic Stability in Human liver Microsomes % compound remaining at 40 minutes [1]: 47%
- half-life at 1 μM [1]: 38 min

SMILES: C=C(C)[C@@H]1CC[C@]2(C(=O)Nc3cccc4cccnc34)CC[C@]3(C)C(CCC4[C@@]5(C)CCC(OC(=O)CC(C)(C)C(=O)O)C(C)(C)C5CC[C@]43C)C12 (stereo partly drawn) [Compound 127]
- EC50 [2, 7]: 3100 nM

SMILES: C=C(C)[C@@H]1CC[C@]2(C(=O)NCc3ccc(F)cc3C(=O)O)CC[C@]3(C)C(CCC4[C@@]5(C)CCC(OC(=O)CC(C)(C)C(=O)O)C(C)(C)C5CC[C@]43C)C12 (stereo partly drawn) [Compound 128]
- EC50 [2, 7]: 28 nM
- IC50 (HIV-1IIIB; Table 7): 3.6 nM

SMILES: C=C(C)[C@@H]1CC[C@]2(C(=O)NCc3ccc(C(=O)O)s3)CC[C@]3(C)C(CCC4[C@@]5(C)CCC(OC(=O)CC(C)(C)C(=O)O)C(C)(C)C5CC[C@]43C)C12 (stereo partly drawn) [Compound 129]
- EC50 [2, 7]: 371 nM

SMILES: C=C(C)[C@@H]1CC[C@]2(C(=O)NCc3cccnc3C(=O)O)CC[C@]3(C)C(CCC4[C@@]5(C)CCC(OC(=O)CC(C)(C)C(=O)O)C(C)(C)C5CC[C@]43C)C12 (stereo partly drawn) [Compound 130]
- EC50 [2, 7]: 24 nM
- IC50 (HIV-1IIIB; Table 7): 44 nM

SMILES: C=C(C)[C@@H]1CC[C@]2(C(=O)NCc3ccc4cccc(O)c4n3)CC[C@]3(C)C(CCC4[C@@]5(C)CCC(OC(=O)CC(C)(C)C(=O)O)C(C)(C)C5CC[C@]43C)C12 (stereo partly drawn) [Compound 131]
- EC50 [2, 7]: 3 nM
- IC50 (HIV-1IIIB; Table 7): 3.5 nM

SMILES: C=C(C)[C@@H]1CC[C@]2(C(=O)N[C@@H](C)c3cccc[n+]3[O-])CC[C@]3(C)C(CCC4[C@@]5(C)CCC(OC(=O)CC(C)(C)C(=O)O)C(C)(C)C5CC[C@]43C)C12 (stereo partly drawn) [Compound 132]
- EC50 [2, 7]: 36 nM
- IC50 (HIV-1IIIB; Table 7): 44 nM
